Counter-ions that a name gives are not always drawn. Like-named read-outs stand apart in the source and are kept apart here.

The source of these data is patent US20030095953A1, “METHODS OF REVERSING DRUG RESISTANCE IN CANCER CELLS” (priority 1999, published 2003).

What all share (format): cell-based, human
The subject of assay [1] is MCF-7-AdrR cells. Briefly: Cytotoxicity assay in MCF-7-AdrR cells. To be noted: 72 hr exposure, read-out: EC50 (amount of drug provoking 50% cell death). How it is done: (§1) Cytotoxicity Assay. Assays were performed as previously described (Liu, Y. Y., et al., (1999) J. Biol. Chem. 274, 1140-1146; Lavie, Y. et al., (1997) J. Biol. Chem. 272, 1682-1687). Briefly, cells were seeded in 96-well plates (2,000 cells/well), in 0.1 ml RPMI-1640 medium containing 10% FBS, and cultured at 37° C. for 24 hr before addition of drug. Drugs were added in FBS-free medium (0.1 ml), and cells were cultured at 37° C. for the indicated periods. Drug cytotoxicity was determined using the Promega 96 Aqueous cell proliferation assay kit (Promega, Madison, Wis.). Absorbance at 490 nm was recorded using a Microplate Fluorescent Reader, model FL600 (Bio-Tek, Winooski, Vt.).

Assay [2] deals with MCF-7-AdrR/asGCS cells. As to the kind of experiment: Cytotoxicity assay in MCF-7-AdrR/asGCS cells. The conditions noted are these: 72 hr exposure; for EC50: Homo sapiens, MCF-7-AdrR/asGCS cells, read-out: EC50 (amount of drug provoking 50% cell death). How it is done: as §1
Assay [3] relates to MCF-7-AdrR/asGCS cells. Briefly: Analysis of ceramide in MCF-7-AdrR/asGCS cells. How it is done:
(§2) Analysis of Ceramide. Analysis was performed as previously described (Liu, Y. Y.et al., (1999) J. Biol. Chem. 274, 1140-1146, Lavie, Y., et al., (1996) J. Biol. Chem. 271, 19530-19536). Cells were seeded in 6-well plates (60,000 cells/well) in 10% FBS RPMI-1640 medium. After 24 hr, cells were shifted to 5% FBS medium with or without adriamycin, and grown for the indicated times. Cellular lipids were radiolabeled by adding [3H]palmitic acid (2.5 μCi/ml culture medium) for 24 hr. After removal of medium, cells were rinsed twice with PBS (pH 7.4), and total lipids were extracted as described (Lavie, Y. et al.,. (1996) J. Biol. Chem. 271, 19530-19536). The resulting organic lower phase was withdrawn and evaporated under a stream of nitrogen. Lipids were resuspended in 100 μl of chloroform/methanol (1:1, v/v), and aliquots were applied to TLC plates. Ceramide was resolved using a solvent system containing chloroform/acetic acid (90:10, v/v). Commercial lipid standards were co-chromatographed. After development, lipids were visualized by iodine vapor staining, and the ceramide area was scraped into 0.5 ml water. EcoLume counting fluid (4.5 ml) was added, the samples were mixed, and radioactivity was quantitated by liquid scintillation spectrometry.

The subject of assay [4] is MCF-7-AdrR cells. Briefly: Analysis of ceramide in MCF-7-AdrR cells. The conditions noted are these: 48 hr. As for the experimental part:
as §2

Assay [5] has as its system caspase-3. As to the kind of experiment: Caspase-3 assay (DEVD-AFC cleavage) in MCF-7-AdrR/asGCS cells. The conditions noted are these: for increase of caspase-3 activity over control: MCF-7-AdrR/asGCS cells, 10 μM; for caspase-3 activity in GCS antisense-transfected cells vs parental cells: adriamycin 10 μM. As for the experimental part: (§3) Caspase-3 Assay. Caspase-3 activity was assayed by DEVD-AFC cleavage, using the ApoAlert Caspase-3 assay kit (Clontech, Palo Alto, Calif.). The assay was performed as previously described (Liu, Y. Y., et al., (1999) Exp. Cell Res. 252, 464-470). Cells were seeded in 100-mm dishes (500,000 cells/dish) in 10% FBS RPMI-1640 medium. After 24 hr, cells were shifted to 5% FBS RPMI-1640 medium without or with adriamycin, and grown for 24 and 48 hr. Following harvest, cells ([…]) were lysed on ice for 10 min with 50 μl of lysis buffer, and cell debris was removed by centrifugation at 4° C., 10,000×g, for 5 min. The soluble fraction was incubated with 50 μM conjugated substrate DEVD-AFC in a 100 μl reaction volume at 37° C., for 60 min. The free AFC fluoresce was measured at λexcitation 400 nm and λemission 505 nm using a FL600 Microplate Fluorescence Reader. The caspase-3 inhibitor, acetyl-Asp-Glu-Val-Asp-aldehyde was used to exclude nonspecific background in the enzymatic reaction.

In assay [6] the test system is caspase-3. As to the kind of experiment: Caspase-3 assay (DEVD-AFC cleavage) in MCF-7-AdrR cells. To be noted: 10 μM, 48 hr. How it is done:
as §3

Take `COc1cccc2c1C(=O)c1c(O)c3c(c(O)c1C2=O)C[C@@](O)(C(=O)CO)C[C@@H]3O[C@H]1C[C@H](N)[C@H](O)[C@H](C)O1` [adriamycin, doxorubicin hydrochloride]: the EC50 in the assay on MCF-7-AdrR cells [1] (hydrochloride) turned out to be 10 µM; in the assay with MCF-7-AdrR cells [1] (Homo sapiens, 72 h), 12.4 ± 0.7 µM; in the assay on MCF-7-AdrR/asGCS cells [2], 0.44 ± 0.01 µM. Besides, the “decrease of EC50 in MCF-7-AdrR/asGCS vs MCF-7-AdrR cells” value with MCF-7-AdrR/asGCS cells [2] came out at 28 fold. Also, the “enhancement of ceramide levels” value in the assay with MCF-7-AdrR/asGCS cells [3] (adriamycin 0.5 μM, 48 hr) is reported as 181%; with MCF-7-AdrR/asGCS cells [3] (adriamycin 1.0 μM, 48 hr), 188%; in the assay with MCF-7-AdrR/asGCS cells [3] (adriamycin 2.5 μM, 48 hr (dose series)), 246%. Besides, the “increase of ceramide levels” value is 200% with MCF-7-AdrR/asGCS cells [3] (adriamycin 2.5 μM, 24 hr) and 250% in the assay with MCF-7-AdrR/asGCS cells [3] (adriamycin 2.5 μM, 48 hr). In the assay with MCF-7-AdrR cells [4] (adriamycin 2.5 μM), the “increase of ceramide levels above control” value was found to be 16%. The ceramide level response entry in the assay on MCF-7-AdrR cells [4] (adriamycin 0.5-2.5 μM) is “minimal response”. In addition, the “increase of caspase-3 activity over control” value is recorded as 290% in the assay on caspase-3 [5] (24 hr) and 980% with caspase-3 [5] (48 hr). For the same compound, the “caspase-3 activity in GCS antisense-transfected cells vs parental cells” value with caspase-3 [5] (24 hr) is 3 fold; in the assay with caspase-3 [5] (48 hr), 6 fold. Besides, the “increase of caspase-3 activity” value with caspase-3 [6] stood at 160%.
Take `CCCCCCCCCCCCC/C=C/[C@@H](O)[C@H](CO)NC(=O)CCCCC` [C6-ceramide, N-hexanoylsphingosine]: the EC50 with MCF-7-AdrR cells [1] (Homo sapiens, 72 h) came to 9.6 ± 0.5 µM. In the assay on MCF-7-AdrR/asGCS cells [2], the “decrease of EC50 in MCF-7-AdrR/asGCS vs MCF-7-AdrR cells” value turned out to be 2.4 fold and the half-maximal effective concentration (EC50) stood at 4 ± 0.03 µM.
